Our source for the melting point values is a melting point compilation (Tetko et al.; mined from patent text by program, amines drawn as free bases though some values may be those of a salt).

`CCCCOc1ccc(Cl)cc1C(=O)NCCc1ccc(CC(=O)OCC)cc1` had a melting point of 80 °C.

`Nc1cc(-c2cc(=O)c(C(=O)O)cn2-c2ccc(F)cc2)ccc1O` gave a melting point of 231 to 233 °C.

As to `COC(=O)C(Cl)=Cc1ccc(Cl)cc1`, the melting point was 78 to 80 °C.

As for `CCOC(=O)C1CCn2c(cc3cc(OC)ccc32)C1` (stereo not drawn), the melting point lay within 104 to 105 °C.

Regarding `CCCc1c(CCC(=O)O)cnn1Cc1ccc(OCc2nc(-c3ccccc3)oc2C)cc1`, the melting point lay in the range of 158 to 159 °C.

With `Clc1c(-c2ccccc2)noc1NCC#CI`, the melting point was 133 to 135 °C.

Take `O=C(O)/C=C/c1ccc(C(=C2CCCCCC2)c2ccc(O)c(Cl)c2)cc1`: the melting point is 155 to 156 °C.

As to `COc1ccc2cc(C(C)C(=O)ON(C(N)=O)C(C)c3cc4ccccc4s3)ccc2c1` (stereo not drawn), the melting point lay within 62 to 70 °C.

`CC(=O)Nc1ccc(-c2cc3[nH]c(=O)[nH]c3nc2C)cc1` showed a melting point above 300 °C.

On to `Cc1ccc(S(=O)(=O)NCC2(N3CCN(C)CC3)CCCCC2)cc1`, for which the melting point lay within 128 to 130 °C.

`CC(=O)NC(=O)C(Cl)Cc1ccc(OCC(C)(C)c2ccccc2)cc1` (stereo not drawn): the melting point fell in the range of 125 to 126 °C.

Take `CC(C)(O)C(=O)Nc1c(C(=O)c2ccccc2)[nH]c2cc(Cl)ccc12`: the melting point was in the range of 234 to 238 °C.

`COC(=O)C1=Cc2cc(-c3ccc(OC(C)C)cc3)ccc2S(=O)(=O)CC1` gave a melting point of 140 to 142 °C.

The compound `CCOCc1nc2c(N)nc3ccccc3c2n1NCCCNC(C)=O` gave a melting point of 178 to 181 °C.

As for `CCCCCCCCCCCCn1nnc(CCC(=O)OC)n1`, the melting point is 39 to 42 °C.

`C[C@H]1c2cc(F)ccc2-c2ccc(F)cc2N1S(=O)(=O)c1cccc(O)c1`: the melting point fell in the range of 181 to 182 °C.

As to `CC1(C(=O)N2CCN(S(=O)(=O)c3ccc(Br)cc3)CC2)CCN(c2ccncn2)CC1`, the melting point was 217 to 218 °C.

For `O=Cc1cn(Cc2ccc(OCc3csc(-c4ccccc4)n3)cc2)nc1-c1cccs1`, the melting point fell in the range of 115 to 116 °C.

Compound `CCOCCOc1ccc(CCNC(=O)c2ccccc2CC(=O)OCC)cc1` returned a melting point of 108 °C.

`O=c1c2cc(F)c(F)cc2n(-c2cccc(F)c2)c(=O)n1OCc1ccccc1` registered a melting point of 179 to 181 °C.

For the compound `Cc1ccc(-c2cc3ccc(C(=O)O)cc3o2)cc1`, the melting point lay in the range of 270 to 272 °C.

`CC1(C(=O)C(CC2CCCCC2)n2cncn2)COCOC1` (stereo not drawn) registered a melting point of 68 to 71 °C.

Take `Nc1ccc(C(=O)OCCCCl)c(N)c1`: the melting point worked out at 97 °C.

As for `COc1c(Cl)ccc(-c2cc(N)c(Cl)c(C(=O)NOCc3ccccc3)n2)c1F`, the melting point lay within 166 to 169 °C.

For `Cc1c(N2C(=O)CCC2=O)nc(C)n2c1c(CCCl)c1ccccc12`, the melting point was 232 to 234 °C.

Consider `CCOc1ccc(C(=O)N(CC)CC)c(OCC)c1`, for which the melting point was 45 to 56 °C.

Compound `CC(C)C1(C)N=C(c2nc(O)ccc2C(=O)O)NC1=O` (stereo not drawn) yielded a melting point of 201 to 203 °C.

As to `Cc1cc(-c2c(Cl)ccc(C(=O)c3cnn(C)c3O)c2Cl)on1`, the melting point lay in the range of 143 to 144 °C.

Consider `CCCn1c(=O)[nH]c2ccc(C(=O)c3nc(NS(C)(=O)=O)c4ccccn34)cc2c1=O`, for which the melting point was 334 °C.

`CC(O)(CF)C(=O)Nc1ccc(S(=O)(=O)c2ccccc2)cc1` (stereo not drawn) had a melting point of 189 to 192 °C.

Compound `O=C(Nc1c[nH]nc1C(=O)Nc1cccc(C(F)(F)F)c1)c1ccccn1` yielded a melting point of 236 to 237 °C.

The compound `CCOC(=O)NNC(C)=S` had a melting point of 54 to 57.5 °C.

In turn, `CCc1c(C)[nH]c2cc(OCCOc3ccccc3)c(Cl)cc2c1=O` gave a melting point of 290 to 292 °C.

`Nc1ncc(C#Cc2ccc(Cl)cc2)c(N[C@H]2CC[C@H](O)CC2)n1`: the melting point is 215 to 218 °C.

For `CN(C)Cc1ccc2cc(NC(=O)c3ccc(-c4ccccc4)cc3)ccc2n1`, the melting point was 191 to 194 °C.

`Cc1nc(C)c(-c2ccc(C#N)cc2)s1` showed a melting point of 108 to 110 °C.

In turn, `COC(=O)Cn1ccnc1Cc1ccccc1` returned a melting point of 70.8 °C.

As for `OC(CSc1nc[nH]n1)(Cn1cncn1)c1ccc(Cl)cc1Cl` (stereo not drawn), the melting point fell in the range of 180 to 182 °C.

The compound `S=C(Cc1ccc(Cl)cc1)N1CCOCC1` registered a melting point of 175 to 177 °C.

For the compound `O=C1COc2cc(NC(=O)C(=O)N3CCC(C(O)c4ccccc4)CC3)ccc2N1` (stereo not drawn), the melting point was 195 to 197 °C.

On to `N#CC(Cl)Cc1ccc(Cl)cc1C(=O)c1ccccc1F` (stereo not drawn), for which the melting point is 94 to 95 °C.

As to `Cc1nn(C(N)=O)c2c1C(=O)CC(C)(C)C2`, the melting point was 173 to 175 °C.

The compound `CCCc1c(OCC2CO2)ccc(C(C)=O)c1O` (stereo not drawn) yielded a melting point of 53 to 55 °C.

`COc1ccccc1C(C)(O)c1ccccc1OC` yielded a melting point of 122 to 123 °C.

Regarding `COc1ccc(Cl)c2c1NC(=O)C2=[N+]=[N-]`, the melting point fell in the range of 206 to 207 °C.

For `Cc1ncc([N+](=O)[O-])n1-c1nccc2[nH]c(=O)ccc12`, the melting point was above 300 °C.

As for `CC(C)c1ccc2ncn(/C=C/C(=O)NCCNCc3ccccn3)c(=O)c2c1`, the melting point fell in the range of 91 to 95 °C.

For `Cc1ncc(I)nc1C`, the melting point lay in the range of 51 to 54 °C.

For the compound `CCN(CC)c1ccc(-c2cc(-c3ccc(C(=O)O)cc3)ccc2OCCCCO)cc1C(C)(C)C`, the melting point was 165 °C.

For `CCOC(=O)N1CCN(C2=Nc3ccccc3Nc3ccsc32)CC1`, the melting point worked out at 166 °C.

`Nc1ccc(N)c(I)c1` had a melting point of 95 to 99 °C.

Take `CCCNC(Nc1cc(C(F)(F)F)cc(C(F)(F)F)c1)=C(C#N)S(=O)(=O)c1ccc(Cl)cc1`: the melting point is 196 to 198 °C.

For `COc1cc2c(cc1OC)CN(CCCCNC(=O)c1cc(Br)ccc1OCCF)CC2`, the melting point fell in the range of 119 to 121 °C.

As to `CC(=O)N1C(=O)Cc2cc(F)c(N3C(=O)C4=C(CCCC4)C3=O)cc21`, the melting point fell in the range of 191 to 194 °C.

`COC(=O)c1ccncc1SCc1ccccc1` returned a melting point of 80 °C.

`CCCCCCCc1c(C(C)C)nc(C(C)C)c(CO)c1-c1ccc(F)cc1` came in with a melting point of 73 to 75 °C.

The compound `Cc1ccccc1S(=O)(=O)NC1CCc2sc(C3=NNC(=O)CC3)cc2C1` (stereo not drawn) came in with a melting point of 204 to 206 °C.

In turn, `CNc1nc(Br)cnc1N` showed a melting point of 121 °C.

Compound `CC(=O)N[C@@H](C)COC1CCN(c2nc3cc(OCC4CCC4)ccc3o2)CC1` registered a melting point of 109 to 110 °C.

Consider `CSCCC(=N)NS(N)(=O)=O`, for which the melting point fell in the range of 88 to 91 °C.

In the case of `CN1CCN(c2cnc3cc(Cl)ccc3n2)CC1`, the melting point lay within 151 to 152 °C.

With `O=C(c1ccccc1)N1Cc2[nH]c3ccccc3c(=O)c2C1`, the melting point stood at 275 °C.

The compound `COc1cc2ncc(OC3CC4CC3C(O)C4O)nc2cc1OC` (stereo not drawn) gave a melting point of 85 to 88 °C.

On to `Cc1c(CO)ncn1Cc1ccccc1`, for which the melting point was 176 to 180 °C.

In turn, `N=C(N)NC[C@H]1CC[C@H](C(=O)O)CC1` had a melting point of 206 to 208 °C.

`CC(C)NC(=S)N1CCc2[nH]cnc2C1C1CCCCC1` (stereo not drawn) yielded a melting point of 218 °C.

In turn, `Cc1ccccc1Sc1c(O)cc(-c2ccccc2)oc1=O` displayed a melting point of 210 to 211 °C.

The compound `O=c1oc(-c2cccc(Cl)c2)nc2ccccc12` displayed a melting point of 158 to 160 °C.

A word on the melting point: it is the temperature of the solid-liquid transition.
